According to US20220227760A1, “COMPOUNDS AND COMPOSITIONS FOR TREATING CONDITIONS ASSOCIATED WITH STING ACTIVITY” (IFM Due, Inc., priority 2019, published 2022):
pEC50: −log10 of the molar value.

Target: T1, Human STING (Homo sapiens, UniProt Q86WV6, G230A/H232R/R293Q/R71H)
T1 construct: host or cells: THP1-Dual KO-IFNAR2 cells
Assay: STING reporter assay (luciferase) in THP1-Dual KO-IFNAR2 cells stimulated with 2′3′cGAMP
Format: cell-based
Details: 15 μM 2′3′cGAMP, 24 h, class symbols
Procedure: STING pathway activation by the compounds described herein is measured using THP1 Dual™ cells (KO-IFNAR2).
THP1-Dual™ KO-IFNAR2 Cells (obtained from invivogen) are maintained in RPMI, 10% FCS, 5 ml P/S, 2 mM L-glut, 10 mM Hepes, and 1 mM sodium pyruvate. Compounds are spotted in empty 384 well tissue culture plates (Greiner 781182) by Echo for a final concentration of 0.0017-100 μM. Cells are plated into the TC plates at 40 μL per well, 2×10E6 cells/mL. For activation with STING ligand, 2′3′cGAMP (MW 718.38, obtained from Invivogen), is prepared in Optimem media.
The following solutions are prepared for each 1×384 plate: • Solution A: 2 mL Optimem with one of the following stimuli: • 60 uL of 10 mM 2′3′cGAMP ->150 μM stock • Solution B: 2 mL Optimem with 60 μL Lipofectamine 2000->Incubate 5 min at RT
2 mL of solution A and 2 ml Solution B is mixed and incubated for 20 min at room temperature (RT). 20 uL of transfection solution (A+B) is added on top of the plated cells, with a final 2′3′cGAMP concentration of 15 μM. The plates are then centrifuged immediately at 340 g for 1 minute, after which they are incubated at 37° C., 5% CO2, >98% humidity for 24 h. Luciferase reporter activity is then measured. EC50 values were calculated by using standard methods known in the art.
Luciferase reporter assay: 10 μL of supernatant from the assay is transferred to white 384-plate with flat bottom and squared wells. one pouch of QUANTI-Luc™ Plus is dissolved in 25 mL of water. 100 μL of QLC Stabilizer per 25 mL of QUANTI-Luc™ Plus solution was added. 50 μL of QUANTI-Luc™ Plus/QLC solution per well is then added. Luminescence is measured on a Platereader (e.g., Spectramax I3X (Molecular Devices GF3637001)).
Luciferase reporter activity is then measured. EC50 values are calculated by using standard methods known in the art.

T1 sequence (Q86WV6 whole entry R71H/G230A/H232R/R293Q): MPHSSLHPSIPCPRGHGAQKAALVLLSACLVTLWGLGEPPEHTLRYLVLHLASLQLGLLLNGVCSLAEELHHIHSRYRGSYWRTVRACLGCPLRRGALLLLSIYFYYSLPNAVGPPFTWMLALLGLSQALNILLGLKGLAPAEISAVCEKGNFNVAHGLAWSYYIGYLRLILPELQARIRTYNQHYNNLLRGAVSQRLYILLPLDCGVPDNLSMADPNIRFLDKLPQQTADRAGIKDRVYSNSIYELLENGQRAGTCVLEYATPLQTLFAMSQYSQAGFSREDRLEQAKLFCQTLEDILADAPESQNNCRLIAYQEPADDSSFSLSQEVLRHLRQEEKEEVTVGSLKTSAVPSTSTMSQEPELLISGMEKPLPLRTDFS

SMILES | pEC50
Fc1cnc2[nH]cc(Nc3ncc(-c4ccccc4)o3)c2c1 [Compound 101, N-[5-fluoro-1H-pyrrolo[2,3-b]pyridin-3-yl]-5-phenyl-1,3-oxazol-2-amine] | 6.00 to 6.70
c1ccc(-c2ccnc(Nc3c[nH]c4cccnc34)c2)cc1 [Compound 102, N-(4-phenylpyridin-2-yl)-1H-pyrrolo[3,2-b]pyridin-3-amine] | 4.52 to 5.30
O=c1cc(-c2ccccc2)[nH]c(Nc2c[nH]c3cccnc23)n1 [Compound 160] | 5.30 to 6.00
Fc1cc2[nH]cc(Nc3ccc4cc(C(F)(F)F)ccc4n3)c2cc1F [Compound 161, N-(5,6-difluoro-1H-indol-3-yl)-6-(trifluoromethyl)quinolin-2-amine] | 5.30 to 6.00
Fc1cc2[nH]cc(Nc3ccc4ccc(C(F)(F)F)cc4n3)c2cc1F [Compound 162] | 6.00 to 6.70
O=c1cc(-c2ccccc2)[nH]c(Nc2c[nH]c3cc(F)c(F)cc23)n1 [Compound 163, 2-[(5,6-difluoro-1H-indol-3-yl)amino]-6-phenyl-1H-pyrimidin-4-one] | 4.52 to 5.30

Other lines, results leading:

pEC50 | SMILES
5.30 to 6.00 | c1ccc2sc(Nc3c[nH]c4ccccc34)nc2c1 [Compound 103]
5.30 to 6.00 | c1ccc(-c2ccnc(Nc3c[nH]c4ccccc34)n2)cc1 [Compound 158]
4.52 to 5.30 | c1ccc2nc(Nc3c[nH]c4ccccc34)ncc2c1 [Compound 159]
6.00 to 6.70 | c1ccc(-c2cnc(Nc3c[nH]c4ccccc34)s2)cc1 [Compound 165]
5.30 to 6.00 | c1ccc2cc(Nc3c[nH]c4ccccc34)ncc2c1 [Compound 166]
5.30 to 6.00 | c1ccc2nc(Nc3c[nH]c4ccccc34)ccc2c1 [Compound 167]
4.52 to 5.30 | c1ccc(-c2ccc(Nc3c[nH]c4cccnc34)nc2)cc1 [Compound 169]

Same assay, conditions: 15 μM 2′3′cGAMP, 24 h, numeric bounds

pEC50 | SMILES
< 4.52 | O=c1cc[nH]c(Nc2c[nH]c3cc(F)c(F)cc23)n1 [Compound 164]
< 4.00 | O=c1nc(Nc2c[nH]c3cccnc23)ccn1-c1ccccc1 [Compound 168]
